Measurements: patent US20100273652A1 (priority 2009, published 2010)

Tests used:
Format in all cases: cell-based
[1] = test system: fumonisin FB1 production of Fusarium proliferatum; assay: Inhibition of fumonisin FB1 production of Fusarium proliferatum; details: 5 days, 20° C., vs control without compound
[2] = test system: Fusarium proliferatum; assay: Growth inhibition of Fusarium proliferatum (OD620); details: OD620 at start and after 5 days
[3] = test system: Fusarium graminearum
[4] = test system: DON/Acetyl-DON production of Fusarium graminearum

SMILES	% inhibition at 50 μM FB1 [1] [%]	% inhibition at 50 μM Fusarium proliferatum (growth) [2] [%]	% inhibition at 50 μM Fusarium graminearum (growth) [3] [%]	% inhibition at 50 μM DON/AcDON [4] [%]
Nc1cc(-c2[nH]c3cccnc3c2-c2ccc(F)cc2)ccn1 [Example 4]	45	31	–	–
C=C=Cn1c(-c2ccncc2)c(-c2ccc(F)cc2)c2ncccc21 [Example 15]	–	37	33	44
